Series [1] concerns the target T1, PSMA (Homo sapiens, UniProt Q04609).
T1 construct: PSMA-positive LNCAP cells (300265; Cell Lines Service, Eppelheim, Germany); host or cells: LNCaP cells
Nature of the series: PSMA affinity (IC50), competition with [125I]I-BA-KuE on LNCaP cells. It is filed as binding. The conditions noted are these: natLu complex, on ice 60 min, read-out: IC50. The protocol:
A mixture of trypsin and EDTA (0.05%, 0.02%) in PBS (Biochrom) was used in order to harvest cells. Cells were counted with a Neubauer hemocytometer (Paul Marienfeld, Lauda-Königshofen, Germany).
Affinity Determinations (IC50)
In the case of metal-complexed ligands, the crude reaction mixture was diluted analogously, without further purification. Cells were harvested 24±2 hours prior to the experiment and seeded in 24-well plates (1.5×10^5 cells in 1 mL/well). […] The media of both steps were combined in one fraction and represent the amount of free radioligand. Afterwards, the cells were lysed with 250 μL of 1 M aqueous NaOH for at least 10 min. After a washing step (250 μL of 1 M NaOH), both fractions, representing the amount of bound ligand, were united. Quantification of all collected fractions was accomplished in a γ-counter. PSMA-affinity determinations were carried out at least three times per ligand.

The nature of series [2]: Apparent molecular weight (MWapp).
Series [3] is described as follows: Octanol-water partition coefficient (log D7.4). It is filed as physicochemical. The conditions noted are these: PBS pH 7.4 / n-octanol, 177Lu-labelled. As for the experimental part:
Octanol-Water Partition Coefficient (log D7.4)
Approximately 1 MBq of the labelled tracer was dissolved in 1 mL of a 1:1 mixture (v/v) of PBS (pH 7.4) and n-octanol in a reaction vial (1.5 mL). After vigorous mixing of the suspension for 3 minutes at room temperature, the vial was centrifuged at 15000 g for 3 minutes (Biofuge 15, Heraus Sepatech, Osterode, Germany) and 100 μL aliquots of both layers were measured in a gamma counter. The experiment was repeated at least six times.

Series [4] relates to LNCaP tumor-bearing mice. As to the kind of experiment: μSPECT/CT imaging with tumor uptake. It counts as in vivo. The protocol:
Static images were recorded of sacrificed mice, 24 h p.i. directly after blood collection, with an acquisition time of 45 min using the HE-GP-RM collimator and a step-wise multi-planar bed movement. For imaging studies, a MILabs VECTor4 small-animal SPECT/PET/OI/CT from MILabs (Utrecht, Netherlands) was applied. Furthermore, data were reconstructed using the MILabs-Rec software (version 10.02) and a pixel-based Similarity-Regulated Ordered Subsets Expectation Maximization (SROSEM) algorithm with a window-based scatter correction (20% below and 20% above the photopeak, respectively). Moreover, further data analysis was accomplished using the PMOD4.0 software acquired from PMOD TECHNOLOGIES LLC (Zurich, Switzerland) at defined settings (voxel size CT: 80 μm, voxel size SPECT: 0.8 mm, 1.6 mm (FWHM) Gaussian blurring post processing filter, with calibration factor in kBq/mL and decay correction and no attenuation correction).

One may read the IC50 as the concentration that inhibits the measured activity by half.

T1 sequence (Q04609 whole entry): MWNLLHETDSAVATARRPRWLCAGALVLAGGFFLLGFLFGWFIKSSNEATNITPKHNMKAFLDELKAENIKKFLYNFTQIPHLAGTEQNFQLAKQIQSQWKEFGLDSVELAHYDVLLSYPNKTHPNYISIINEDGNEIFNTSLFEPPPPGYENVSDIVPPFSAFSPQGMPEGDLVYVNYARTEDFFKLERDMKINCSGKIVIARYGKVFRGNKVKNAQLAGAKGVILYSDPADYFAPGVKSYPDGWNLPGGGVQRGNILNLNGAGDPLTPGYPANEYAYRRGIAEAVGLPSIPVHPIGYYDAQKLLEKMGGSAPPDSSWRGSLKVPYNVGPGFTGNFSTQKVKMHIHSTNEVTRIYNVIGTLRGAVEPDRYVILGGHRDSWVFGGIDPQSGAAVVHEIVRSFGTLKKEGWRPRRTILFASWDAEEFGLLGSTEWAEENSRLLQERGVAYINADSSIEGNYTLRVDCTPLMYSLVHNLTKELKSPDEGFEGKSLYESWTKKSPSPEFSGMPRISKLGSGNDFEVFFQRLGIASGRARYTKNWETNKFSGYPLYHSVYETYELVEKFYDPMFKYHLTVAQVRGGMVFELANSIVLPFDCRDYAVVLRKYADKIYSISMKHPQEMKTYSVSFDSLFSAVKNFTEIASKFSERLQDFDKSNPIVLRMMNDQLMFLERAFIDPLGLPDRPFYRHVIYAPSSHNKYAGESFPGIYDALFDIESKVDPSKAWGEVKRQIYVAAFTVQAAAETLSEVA

`CC(C)(C)[Si](F)(c1ccc(C(=O)NC[C@@H](NC(=O)CN2CCN(CC(=O)O)CCN(CC(=O)O)CCN(CC(=O)O)CC2)C(=O)N[C@H](CO)C(=O)NCCC(=O)NCCC(=O)NCCC[C@@H](NC(=O)CC[C@H](NC(=O)N[C@@H](CCC(=O)O)C(=O)O)C(=O)O)C(=O)O)cc1)C(C)(C)C` [Compound 2C013]: in series [1], the IC50 was 4.44 nM. In addition, in series [2], the MWapp was 17.6 kDa. In addition, the logD7.4 in series [3] was −3.30 ± 0.06. Besides, in series [4] (24 h p.i., versus [177Lu]rhPSMA-7.3 and [177Lu]PSMA-I&T), the “kidney uptake (FIG. 5, in words)” value is recorded as “lower kidney uptake than the previously known compounds”. In addition, in series [4] (μSPECT/CT scan, single animal), the “tumor uptake of the scanned mouse (FIG. 1)” value is recorded as 9.8 % iD/g.

Source of the values: patent US20240165281A1, “DUAL MODE RADIOTRACER AND THERAPEUTICS” (Technische Universität München, priority 2021, published 2024).
